Reference: the supplement of paper PMC9663587

Assays:
Test in all cases: increase in dead-cell fraction, 72 h; higher = more death;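 further: breast cancer cell lines in 384-well plates, stained with Hoechst plus LIVE/DEAD far red dye and imaged, cells above an LDR intensity threshold counted dead, Hoechst-negative corpses included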
[1] = compound: CCN1CCN(Cc2ccc(Nc3ncc(F)c(-c4cc(F)c5nc(C)n(C(C)C)c5c4)n3)nc2)CC1
[2] = compound: CCc1cnn2c(NCc3ccc[n+]([O-])c3)cc(N3CCCC[C@H]3CCO)nc12
THZ1 = compound: CN(C)C/C=C/C(=O)Nc1ccc(C(=O)Nc2cccc(Nc3ncc(Cl)c(-c4c[nH]c5ccccc45)n3)c2)cc1 [THZ1]
YKL-5-124 = compound: C=CC(=O)Nc1ccc(C(=O)Nc2[nH]nc3c2CN(C(=O)N[C@H](CN(C)C)c2ccccc2)C3(C)C)cc1 [YKL-5-124]
Neratinib/HKI272 = compound: CCOc1cc2ncc(C#N)c(Nc3ccc(OCc4ccccn4)c(Cl)c3)c2cc1NC(=O)/C=C/CN(C)C [Neratinib/HKI272]
Flavopiridol = compound: CN1CC[C@H](c2c(O)cc(O)c3c(=O)cc(-c4ccccc4Cl)oc23)[C@H](O)C1 [Flavopiridol]

Cell Line: HCC1143
- increase in dead-cell fraction ([1]; 0.001 µM): -0.0049
- increase in dead-cell fraction ([1]; 0.003162 µM): -0.0032
- increase in dead-cell fraction ([1]; 0.01 µM): -0.0047
- increase in dead-cell fraction ([1]; 0.03162 µM): 0.0015
- increase in dead-cell fraction ([1]; 0.1 µM): -0.003
- increase in dead-cell fraction ([1]; 0.3162 µM): -0.0023
- increase in dead-cell fraction ([1]; 1 µM): 0.0074
- increase in dead-cell fraction ([1]; 3.162 µM): 0.0254
- increase in dead-cell fraction ([1]; 10 µM): 0.124
- increase in dead-cell fraction ([2]; 0.0001 µM): -0.0025
- increase in dead-cell fraction ([2]; 0.0003162 µM): -0.0033
- increase in dead-cell fraction ([2]; 0.001 µM): 0.0002
- increase in dead-cell fraction ([2]; 0.003162 µM): -0.0039
- increase in dead-cell fraction ([2]; 0.01 µM): 0.006
- increase in dead-cell fraction ([2]; 0.03162 µM): 0.248
- increase in dead-cell fraction ([2]; 0.1 µM): 0.258
- increase in dead-cell fraction ([2]; 0.3162 µM): 0.254
- increase in dead-cell fraction ([2]; 1 µM): 0.239
- increase in dead-cell fraction (THZ1; 0.0001 µM): -0.0073
- increase in dead-cell fraction (THZ1; 0.0003162 µM): -0.0031
- increase in dead-cell fraction (THZ1; 0.001 µM): -0.0053
- increase in dead-cell fraction (THZ1; 0.003162 µM): -0.0066
- increase in dead-cell fraction (THZ1; 0.01 µM): 0.0051
- increase in dead-cell fraction (THZ1; 0.03162 µM): 0.0382
- increase in dead-cell fraction (THZ1; 0.1 µM): 0.162
- increase in dead-cell fraction (THZ1; 0.3162 µM): 0.192
- increase in dead-cell fraction (THZ1; 1 µM): 0.165
- increase in dead-cell fraction (YKL-5-124; 0.001 µM): 0.0369
- increase in dead-cell fraction (YKL-5-124; 0.003162 µM): 0.0319
- increase in dead-cell fraction (YKL-5-124; 0.01 µM): 0.0518
- increase in dead-cell fraction (YKL-5-124; 0.03162 µM): 0.0428
- increase in dead-cell fraction (YKL-5-124; 0.1 µM): 0.0477
- increase in dead-cell fraction (YKL-5-124; 0.3162 µM): 0.0836
- increase in dead-cell fraction (YKL-5-124; 1 µM): 0.0896
- increase in dead-cell fraction (YKL-5-124; 3.162 µM): 0.0668
- increase in dead-cell fraction (YKL-5-124; 10 µM): 0.121
- increase in dead-cell fraction (Neratinib/HKI272; 0.0003162 µM): 0.003
- increase in dead-cell fraction (Neratinib/HKI272; 0.001 µM): 0.0005
- increase in dead-cell fraction (Neratinib/HKI272; 0.003162 µM): 0.006
- increase in dead-cell fraction (Neratinib/HKI272; 0.01 µM): 0.0143
- increase in dead-cell fraction (Neratinib/HKI272; 0.03162 µM): 0.0116
- increase in dead-cell fraction (Neratinib/HKI272; 0.1 µM): 0.0306
- increase in dead-cell fraction (Neratinib/HKI272; 0.3162 µM): 0.0437
- increase in dead-cell fraction (Neratinib/HKI272; 1 µM): 0.0748
- increase in dead-cell fraction (Neratinib/HKI272; 3.162 µM): 0.261
- increase in dead-cell fraction (Flavopiridol; 0.0001 µM): -0.0098
- increase in dead-cell fraction (Flavopiridol; 0.0003162 µM): -0.0008
- increase in dead-cell fraction (Flavopiridol; 0.001 µM): -0.0018
- increase in dead-cell fraction (Flavopiridol; 0.003162 µM): 0.0048
- increase in dead-cell fraction (Flavopiridol; 0.01 µM): 0.0022
- increase in dead-cell fraction (Flavopiridol; 0.03162 µM): -0.0053
- increase in dead-cell fraction (Flavopiridol; 0.1 µM): 0.0185
- increase in dead-cell fraction (Flavopiridol; 0.3162 µM): 0.0656
- increase in dead-cell fraction (Flavopiridol; 1 µM): 0.228
